BindingDB's records for patent US20250346571 (Xizang Haisco Pharmaceutical, 2025)

Target: Poly [ADP-ribose] polymerase 1 (Homo sapiens, UniProt P09874)
Assay: PARP-1 Enzyme Activity Test Experiment
Procedure: PARP-1 chemical […] detection kit was purchased from BPS Bioscience. The histone solution in the kit was diluted 5× with 1×PBS, and 25 μL of the diluted histone solution was added to a microwell plate and incubated overnight at 4° C. After the incubation, the plate was washed three times with PBST (0.05% Tween-20). 100 μL of the blocking solution was added to the microwell plate and incubated at 25° C. for 90 minutes. After the incubation was completed, the plate was washed three times with PBST. 2.5 μL of compounds at different concentrations diluted in test buffer and 12.5 μL of substrate mixed solution (1.25 μL 10×PARP test buffer; 1.25 μL 10×PARP test mixed solution; 2.5 μL Activated DNA, 7.5 μL double-distilled water) were added to the microwell plate. The PARP-1 enzyme was diluted to 2 ng/μL, […] was added to the microwell plate, and the reaction system was incubated at 25° C. for 60 minutes. After the incubation was completed, the plate was washed three times with PBST. Streptavidin-HRP was diluted 50× with a blocking solution, and 25 μL of the diluent was added to the microwell plate and incubated at 25° C. for 30 minutes. […] ELISA ECL substrate A and substrate B were uniformly mixed at a ratio of 1:1 (v/v), 50 μL of the mixture was added to the microwell plate, and the chemiluminescence value was read.

Poly [ADP-ribose] polymerase 1, sequence (P09874 whole entry): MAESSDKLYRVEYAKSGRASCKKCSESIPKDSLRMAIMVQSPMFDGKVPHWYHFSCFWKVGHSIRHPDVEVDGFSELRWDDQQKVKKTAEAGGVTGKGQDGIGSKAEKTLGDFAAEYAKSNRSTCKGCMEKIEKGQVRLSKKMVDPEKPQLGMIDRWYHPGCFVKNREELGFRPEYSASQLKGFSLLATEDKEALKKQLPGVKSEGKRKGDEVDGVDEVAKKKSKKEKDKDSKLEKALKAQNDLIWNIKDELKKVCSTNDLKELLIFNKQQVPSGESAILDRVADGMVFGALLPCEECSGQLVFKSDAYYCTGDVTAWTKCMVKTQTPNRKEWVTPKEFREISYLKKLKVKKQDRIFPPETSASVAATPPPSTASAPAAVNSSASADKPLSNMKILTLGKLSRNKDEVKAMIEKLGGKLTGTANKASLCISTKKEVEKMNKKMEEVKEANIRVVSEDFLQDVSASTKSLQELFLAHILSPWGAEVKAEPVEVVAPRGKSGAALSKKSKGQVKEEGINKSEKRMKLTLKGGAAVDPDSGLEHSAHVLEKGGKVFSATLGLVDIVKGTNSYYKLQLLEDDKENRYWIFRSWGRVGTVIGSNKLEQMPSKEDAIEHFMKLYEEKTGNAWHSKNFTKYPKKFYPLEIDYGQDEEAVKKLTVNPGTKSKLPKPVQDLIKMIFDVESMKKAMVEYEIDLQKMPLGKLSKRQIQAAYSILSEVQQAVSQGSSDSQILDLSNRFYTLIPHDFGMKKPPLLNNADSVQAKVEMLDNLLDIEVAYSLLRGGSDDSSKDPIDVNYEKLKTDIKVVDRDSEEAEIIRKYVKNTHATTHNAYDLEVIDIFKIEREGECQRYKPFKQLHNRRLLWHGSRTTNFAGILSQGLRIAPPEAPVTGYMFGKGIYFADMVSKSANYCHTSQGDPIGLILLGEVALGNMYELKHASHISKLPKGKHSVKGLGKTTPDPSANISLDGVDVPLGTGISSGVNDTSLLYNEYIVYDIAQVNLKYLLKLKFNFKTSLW

- IC50: < 5 nM
Compound: Cn1cc(NC(=O)c2ccc(N3CCN(Cc4ccc5nc(C(F)F)c(=O)[nH]c5c4F)CC3)c(F)n2)cn1 [US20250346571, Compound 15]
